# Where two headings read alike, the source gives them in different places.
# Assays:
# FADD−/− Jurkat = assay: Cell viability assay, protection from necroptosis in FADD−/− Jurkat cells; assay type: cell-based; details: Homo sapiens, 16 h
# L929 = assay: Cell viability assay, protection from necroptosis in L929 cells; assay type: cell-based, mouse; details: for EC50: Mus musculus, L929, 16 h; for protective effects against cell death of L929 cells induced by TNFα: TNFα 40 ng/mL, 15 h, Fig. 2A
# [1] = tested on: phosphorylation of RIPK1, RIPK3 and MLKL; assay: Western blotting of necroptotic signaling in L929 cells; assay type: cell-based, mouse
# [2] = tested on: phosphorylation of RIPK1, RIPK3 and MLKL; assay: Western blotting of necroptosis pathway in stimulated HT-29 cells; assay type: cell-based, human; details: compounds at 5 μmol/L, 4 h
# [3] = Metabolic stability in mouse liver microsomes; assay type: in vitro ADME
# [4] = Metabolic stability in human liver microsomes; assay type: in vitro ADME
# hRIPK1 = target: T1, hRIPK1 (Homo sapiens, UniProt Q13546); assay: In vitro RIPK1 kinase activity assay; assay type: biochemical; details: Enzymatic IC50s RIPK1, hRIPK1 enzymatic assay
# T1 sequence (Q13546 1-671): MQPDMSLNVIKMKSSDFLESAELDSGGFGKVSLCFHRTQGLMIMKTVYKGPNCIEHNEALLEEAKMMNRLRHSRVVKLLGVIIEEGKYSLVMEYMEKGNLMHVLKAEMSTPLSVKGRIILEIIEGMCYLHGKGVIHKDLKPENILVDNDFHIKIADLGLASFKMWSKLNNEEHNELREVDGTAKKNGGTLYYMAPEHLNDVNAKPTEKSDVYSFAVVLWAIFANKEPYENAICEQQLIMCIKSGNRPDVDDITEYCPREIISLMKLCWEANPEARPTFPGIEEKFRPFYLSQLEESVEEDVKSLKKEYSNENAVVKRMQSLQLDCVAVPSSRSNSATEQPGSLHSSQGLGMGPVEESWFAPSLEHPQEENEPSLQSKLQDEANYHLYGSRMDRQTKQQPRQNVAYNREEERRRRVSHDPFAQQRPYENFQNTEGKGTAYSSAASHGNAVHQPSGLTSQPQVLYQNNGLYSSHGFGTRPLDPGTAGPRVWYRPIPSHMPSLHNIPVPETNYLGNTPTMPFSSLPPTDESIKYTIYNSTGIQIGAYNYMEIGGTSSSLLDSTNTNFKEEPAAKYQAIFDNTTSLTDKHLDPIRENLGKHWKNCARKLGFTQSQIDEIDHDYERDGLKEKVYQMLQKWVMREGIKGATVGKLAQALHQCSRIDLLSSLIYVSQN
# hRIPK3 = hRIPK3 (Homo sapiens, UniProt Q9Y572); assay: In vitro RIPK3 kinase activity assay; assay type: biochemical
# hRIPK3, sequence (Q9Y572 whole entry): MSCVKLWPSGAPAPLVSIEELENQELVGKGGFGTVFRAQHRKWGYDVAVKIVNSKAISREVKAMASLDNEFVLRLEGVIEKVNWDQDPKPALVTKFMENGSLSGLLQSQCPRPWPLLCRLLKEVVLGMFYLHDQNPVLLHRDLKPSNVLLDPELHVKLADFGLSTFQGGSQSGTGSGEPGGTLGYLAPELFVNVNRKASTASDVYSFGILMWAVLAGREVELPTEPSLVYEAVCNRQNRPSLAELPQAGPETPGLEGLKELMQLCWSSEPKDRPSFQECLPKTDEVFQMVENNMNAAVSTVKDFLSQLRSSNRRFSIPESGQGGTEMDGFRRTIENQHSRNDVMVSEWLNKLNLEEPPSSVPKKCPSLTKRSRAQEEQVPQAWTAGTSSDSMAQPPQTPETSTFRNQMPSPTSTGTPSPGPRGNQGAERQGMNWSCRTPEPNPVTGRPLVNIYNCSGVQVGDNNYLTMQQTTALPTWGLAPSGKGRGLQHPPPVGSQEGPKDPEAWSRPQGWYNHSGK
# CYP2C8 = target: T2, CYP2C8 (Homo sapiens, UniProt P10632); assay: CYP450 inhibition; assay type: in vitro ADME
# T2 sequence (P10632 1-490): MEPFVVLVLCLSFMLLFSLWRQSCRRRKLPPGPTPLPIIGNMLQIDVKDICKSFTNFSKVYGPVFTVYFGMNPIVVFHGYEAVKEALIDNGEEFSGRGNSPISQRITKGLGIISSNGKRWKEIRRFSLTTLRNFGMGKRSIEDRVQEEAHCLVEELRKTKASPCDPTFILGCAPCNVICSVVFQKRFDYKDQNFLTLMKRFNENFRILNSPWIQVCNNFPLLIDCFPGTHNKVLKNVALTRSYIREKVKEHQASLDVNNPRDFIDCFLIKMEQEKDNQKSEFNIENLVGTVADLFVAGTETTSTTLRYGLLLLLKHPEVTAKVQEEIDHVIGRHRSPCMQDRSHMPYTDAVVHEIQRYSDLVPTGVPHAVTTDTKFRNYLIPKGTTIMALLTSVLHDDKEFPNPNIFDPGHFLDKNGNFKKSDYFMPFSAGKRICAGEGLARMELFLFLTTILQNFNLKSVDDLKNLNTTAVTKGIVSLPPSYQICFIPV
# PK study in mice = assay type: in vivo; details: male, ICR, mouse, plasma
# [5] = Cytotoxicity at high concentrations in cell viability assays; assay type: cell-based
# TEL-TRKA fusion = TEL-TRKA fusion (Homo sapiens, UniProt P04629+P41212); assay: Anti-proliferation in engineered Ba/F3 cells dependent on TEL-TRKA; assay type: cell-based; details: read-out: IC50 anti-proliferative effect, TEL-TRKA Ba/F3; 72 h
# TEL-TRKA fusion, sequence (P04629 510-781 limits assumed, one chain of several): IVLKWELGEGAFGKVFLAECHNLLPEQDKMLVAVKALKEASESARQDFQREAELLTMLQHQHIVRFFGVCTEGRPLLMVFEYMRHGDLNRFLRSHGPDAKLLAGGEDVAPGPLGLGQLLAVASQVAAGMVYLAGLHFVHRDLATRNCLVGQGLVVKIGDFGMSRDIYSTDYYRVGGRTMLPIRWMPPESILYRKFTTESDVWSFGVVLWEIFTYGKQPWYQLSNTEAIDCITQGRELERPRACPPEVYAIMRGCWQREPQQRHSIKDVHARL
# [6] = read-out: EC50 FADD−/− Jurkat T + S
# [7] = read-out: EC50 FADD−/− Jurkat TNFα
"AUC(0-inf) (PK study in mice; iv, 1 mg/kg) [ng·h/mL]","AUC(0-t) (PK study in mice; iv, 1 mg/kg) [ng·h/mL]","MRT inf (PK study in mice; iv, 1 mg/kg) [min]","Vd (PK study in mice; iv, 1 mg/kg) [L/kg]","clearance (PK study in mice; iv, 1 mg/kg) [mL/min/kg]","half-life (PK study in mice; iv, 1 mg/kg) [min]","AUC(0-inf) (PK study in mice; po, 10 mg/kg) [ng·h/mL]","AUC(0-t) (PK study in mice; po, 10 mg/kg) [ng·h/mL]","Cmax (PK study in mice; po, 10 mg/kg) [ng/mL]","MRT inf (PK study in mice; po, 10 mg/kg) [min]","Tmax (PK study in mice; po, 10 mg/kg) [min]","bioavailability (PK study in mice; po, 10 mg/kg) [%]","half-life (PK study in mice; po, 10 mg/kg) [min]",Structure (SMILES),EC50 (FADD−/− Jurkat; [6]) [nM],EC50 (FADD−/− Jurkat; [7]) [nM],EC50 (L929; read-out: EC50 L929 T + S) [nM],EC50 (L929; read-out: EC50 L929 TNFα) [nM],further results
882,862,125,2.35,18.3,48.6,2210,2190,1340,153,19.8,25.4,80.4,"Cn1ncc(C(=O)NCc2ccc(-n3cnc4c(N)ncnc43)cc2)c1Cc1ccccc1 [compound 39, N-(4-(6-Amino-9H-purin-9-yl)benzyl)-5-benzyl-1-methyl-1H-pyrazole-4-carboxamide]",1,0.04,3.6,0.9,IC50 (hRIPK1): 9.5 nM; IC50 (hRIPK3): > 1000 nM; inhibition of CYP2C8 (in words) (CYP2C8): weakly inhibited CYP2C8
1310,1300,118,1.55,13.3,48.6,8400,8280,3050,243,25.2,63.9,83.4,"Cn1nc(Cl)c(C(=O)NCc2ccc(-n3cnc4c(N)ncnc43)cc2)c1Cc1ccccc1 [compound 48, N-(4-(6-Amino-9H-purin-9-yl)benzyl)-5-benzyl-3-chloro-1-methyl-1H-pyrazole-4-carboxamide]",0.7,0.2,4.6,0.5,–

# Second part, the compound before the results:
Structure (SMILES),"AUC(0-inf) (PK study in mice; iv, 1 mg/kg) [ng·h/mL]","AUC(0-t) (PK study in mice; iv, 1 mg/kg) [ng·h/mL]","MRT inf (PK study in mice; iv, 1 mg/kg) [min]","Vd (PK study in mice; iv, 1 mg/kg) [L/kg]","clearance (PK study in mice; iv, 1 mg/kg) [mL/min/kg]","half-life (PK study in mice; iv, 1 mg/kg) [min]","AUC(0-inf) (PK study in mice; po, 10 mg/kg) [ng·h/mL]","AUC(0-t) (PK study in mice; po, 10 mg/kg) [ng·h/mL]","Cmax (PK study in mice; po, 10 mg/kg) [ng/mL]","MRT inf (PK study in mice; po, 10 mg/kg) [min]","Tmax (PK study in mice; po, 10 mg/kg) [min]","bioavailability (PK study in mice; po, 10 mg/kg) [%]","half-life (PK study in mice; po, 10 mg/kg) [min]",EC50 (FADD−/− Jurkat; [6]) [nM],EC50 (FADD−/− Jurkat; [7]) [nM],EC50 (L929; read-out: EC50 L929 T + S) [nM],EC50 (L929; read-out: EC50 L929 TNFα) [nM],further results
"CN1C(=O)[C@@H](NC(=O)c2n[nH]c(Cc3ccccc3)n2)COc2ccccc21 [compound 2, GSK2982772, reference compound]",–,–,–,–,–,–,–,–,–,–,–,–,–,3.9,0.5,8280,1200,"phosphorylation cascade (Western blot), L929 [1]: inactive even at 1 μmol/L"
CCN1CCN(Cc2ccc(NC(=O)Cc3ccc(-n4cnc5cc(C(=O)NC)ccc54)cc3)cc2C(F)(F)F)CC1 [compound 11],–,–,–,–,–,–,–,–,–,–,–,–,–,> 10000,> 10000,713,190,protective effects against cell death of L929 cells induced by TNFα (L929): protective effects similar to 10; phosphorylation of RIPK1 (Western blot) [2]: diminished the phosphorylation of the upstream effector RIPK1; phosphorylation of RIPK3 and MLKL (Western blot) [2]: comparably diminished the phosphorylation of RIPK3 and the downstream MLKL
CCN1CCN(Cc2ccc(NC(=O)Nc3ccc(-n4cnc5cc(C(=O)NC)ccc54)cc3)cc2C(F)(F)F)CC1 [compound 12],–,–,–,–,–,–,–,–,–,–,–,–,–,–,–,–,–,protective effects against cell death of L929 cells induced by TNFα (L929): protective effects similar to 10; phosphorylation of RIPK1 (Western blot) [2]: diminished the phosphorylation of the upstream effector RIPK1; phosphorylation of RIPK3 and MLKL (Western blot) [2]: comparably diminished the phosphorylation of RIPK3 and the downstream MLKL
"CNC(=O)c1ccc2c(c1)ncn2-c1ccc(CNC(=O)c2cc(Cc3ccccc3)n(C)n2)cc1 [compound 20, 1-(4-((5-Benzyl-1-methyl-1H-pyrazole-3-carboxamido)methyl)phenyl)-N-methyl-1H-benzo[d]imidazole-5-carboxamide]",–,–,–,–,–,–,–,–,–,–,–,–,–,44,5.1,–,312,half-life [3]: ~40 min; half-life [4]: ~40 min
CNC(=O)c1ccc2c(c1)ncn2-c1ccc(CNC(=O)c2cnn(C)c2Cc2ccccc2)cc1 [compound 27],–,–,–,–,–,–,–,–,–,–,–,–,–,5.2,0.5,77,20,half-life [3]: ~40 min; half-life [4]: ~40 min
"Cn1nnc(C(=O)NCc2ccc(-n3cnc4c(N)ncnc43)cc2)c1Cc1ccccc1 [compound 49, N-(4-(6-Amino-9H-purin-9-yl)benzyl)-5-benzyl-1-methyl-1H-1,2,3-triazole-4-carboxamide]",1420,1240,630,6.98,11.7,61.8,4330,4110,1220,345,40.2,33.3,99,0.5,0.06,0.06,0.03,IC50 (hRIPK1): ~6 nM; IC50 (hRIPK3): > 1000 nM; inhibition of CYP2C8 (in words) (CYP2C8): weakly inhibited CYP2C8
"C[C@H](NC(=O)c1cnn(C)c1Cc1ccccc1)c1ccc(-n2cnc3c(N)ncnc32)cc1 [compound 54, (S)-N-(1-(4-(6-Amino-9H-purin-9-yl)phenyl)ethyl)-5-benzyl-1-methyl-1H-pyrazole-4-carboxamide]",672,659,119,2.98,25,26.4,2480,2440,1200,183,30,37,54,0.3,0.08,0.6,0.4,IC50 (hRIPK1): ~6 nM; IC50 (hRIPK3): > 1000 nM
C[C@H](NC(=O)c1c(Cl)nn(C)c1Cc1ccccc1)c1ccc(-n2cnc3c(N)ncnc32)cc1 [compound 57],–,–,–,–,–,–,–,–,–,–,–,–,–,0.3,0.09,0.4,0.3,cytotoxicity at high concentrations [5]: increased cytotoxicity at higher concentrations
C[C@H](NC(=O)c1nnn(C)c1Cc1ccccc1)c1ccc(-n2cnc3c(N)ncnc32)cc1 [compound 58],–,–,–,–,–,–,–,–,–,–,–,–,–,< 0.01,< 0.01,< 0.01,< 0.01,cytotoxicity at high concentrations [5]: increased cytotoxicity at higher concentrations
Cn1nc2c(c1Cc1ccccc1)C(=O)N(Cc1ccc(-n3cnc4c(N)ncnc43)cc1)C2 [compound 60],–,–,–,–,–,–,–,–,–,–,–,–,–,2.9,0.05,116,4.8,–
"C[C@@H](c1ccc(-n2cnc3c(N)ncnc32)cc1)N1Cc2nn(C)c(Cc3ccccc3)c2C1=O [compound 63, (S)-5-(1-(4-(6-Amino-9H-purin-9-yl)phenyl)ethyl)-3-benzyl-2-methyl-5,6-dihydropyrrolo[3,4-c]pyrazol-4(2H)-one]",644,643,58.2,1.6,26.7,36.6,1730,1700,714,165,40.2,26.4,63,0.4,0.03,1.6,0.3,IC50 (TEL-TRKA fusion): > 1000 nM

# Source: article PMC10793102 (Acta Pharmaceutica Sinica. B, 2023)
